PubChem BioAssay AID1774 (Sanford-Burnham Center for Chemical Genomics, 2009)
Activity calls are given as the source filed them. No rule for the calls is given here.

Test system: MDA-MB-435 cytotoxicity with apoptosis inducers, ATPlite, 24 h
Assay: PubChem AID 1774
Settings: stronger effect = higher value

## CSc1nc(-c2ccc(C)cc2)nc(C(Cl)Cl)n1
At 5 µM
  cytotoxicity: -11% (inactive)
Compound alone 2.5 uM, at 2.5 µM
  cytotoxicity: -19%
Plus doxorubicin 50 ug/mL, at 5 µM
  cytotoxicity: 30%
Plus doxorubicin 100 ug/mL, at 5 µM
  cytotoxicity: 75%
Plus etoposide 50 uM, at 5 µM
  cytotoxicity: 18%
Plus etoposide 100 uM, at 5 µM
  cytotoxicity: 14%
Plus thapsigargin 3 uM, at 5 µM
  cytotoxicity: 17%
Plus thapsigargin 10 uM, at 5 µM
  cytotoxicity: -7%
Plus tunicamycin 10 ug/mL, at 5 µM
  cytotoxicity: 10%
Plus tunicamycin 30 ug/mL, at 5 µM
  cytotoxicity: 16%
